Data published in ChEMBL document CHEMBL2086319, “From the first selective non-peptide AT(2) receptor agonist to structurally related antagonists” (J Med Chem, 2012).
Calls of active or inactive are those of the source. The rule behind the calls is not given here.

Legend:
[1] = Displacement of [125I]Ang 2 from pig uterus membrane AT2 receptor after 1.5 hrs by micro-counter; parameters: species or system Sus scrofa
[2] = Displacement of [125I]Ang 2 from rat liver membrane AT1 receptor after 2 hrs by micro-counter
NG108-15 [3] = assay: Induction of neurite outgrowth in mouse/rat NG108-15 cells at 10 nM after 3 days by phase contrast microscopy; type: functional, cell-based
NG108-15 [4] = assay: Induction of neurite outgrowth in mouse/rat NG108-15 cells at 10 nM after 3 days by phase contrast microscopy in presence of PD123,319; type: functional, cell-based
NG108-15 [5] = assay: Inhibition of Ang 2-induced neurite outgrowth in mouse/rat NG108-15 cells at 10 nM after 3 days by phase contrast microscopy; type: functional, cell-based
NG108-15 [6] = assay: Effect on neurite outgrowth in mouse/rat NG108-15 cells assessed as morphological changes at 10 uM after 3 days by phase contrast microscopy; type: functional, cell-based
NG108-15 [7] = assay: Induction of neurite outgrowth in mouse/rat NG108-15 cells at 1 nM after 3 days by phase contrast microscopy in presence of PD123,319; type: functional, cell-based

For `CCCCOC(=O)NS(=O)(=O)c1sc(CC(C)C)cc1-c1cccc(Cn2ccnc2-c2ccccn2)c1`, the Ki [1] was 28 nM and the Ki [2] was over 10000 nM.

In the case of `CCCCOC(=O)NS(=O)(=O)c1sc(CC(C)C)cc1-c1cccc(Cn2ccnc2C(C)=O)c1`, the Ki [1] is reported as 17 nM and the Ki [2] is reported as over 10000 nM.

For `CCCCOC(=O)NS(=O)(=O)c1sc(CC(C)C)cc1-c1cccc(CN(C)C(C)=O)c1`, the Ki [1] was 29 nM and the Ki [2] was over 10000 nM.

With `CCCCOC(=O)NS(=O)(=O)c1sc(CC(C)C)cc1-c1cccc(CN(CC(F)(F)F)C(C)=O)c1` the Ki [1] was 72 nM and the Ki [2] was over 10000 nM.

`CCCCOC(=O)NS(=O)(=O)c1sc(CC(C)C)cc1-c1cccc(CN(Cc2cccnc2)C(C)=O)c1` showed a Ki [1] of 83 nM and a Ki [2] of over 10000 nM.

With `CCCCOC(=O)NS(=O)(=O)c1sc(CC(C)C)cc1-c1cccc(CN(CC)C(=O)c2cccs2)c1` the Ki [1] was 2.2 nM and the Ki [2] was over 10000 nM.

For `CCCCOC(=O)NS(=O)(=O)c1sc(CC(C)C)cc1-c1cccc(CN(CC(F)(F)F)C(=O)C2CC2)c1`, the Ki [1] was 163 nM and the Ki [2] was over 10000 nM.

With `CCCCOC(=O)NS(=O)(=O)c1sc(CC(C)C)cc1-c1cccc(CN(CC)C(C)=O)c1` the Ki [1] was 29 nM and the Ki [2] was over 10000 nM.

Work on `CCCCOC(=O)NS(=O)(=O)c1sc(CC(C)C)cc1-c1cccc(Cn2ccnc2C)c1` yielded a Ki [1] of 29 nM and a Ki [2] of over 10000 nM.

In the case of `CCCCOC(=O)NS(=O)(=O)c1sc(CC(C)C)cc1-c1cccc(Cn2ccnc2CCCC)c1`, the Ki [1] is reported as 10 nM and the Ki [2] is reported as over 10000 nM.

With `CCCCOC(=O)NS(=O)(=O)c1sc(CC(C)C)cc1-c1cccc(C(=O)Cn2cnc3ccccc32)c1` the Activity (NG108-15 [3]) was “inactive”, the Ki [1] was 20 nM and the Ki [2] was over 10000 nM. The Activity (NG108-15 [4]) was “Active” and the inhibition (NG108-15 [5]) was “Active”.

Work on `CCCCOC(=O)NS(=O)(=O)c1sc(CC(C)C)cc1-c1cccc(CN(Cc2ccccc2)C(=O)CCCC)c1` yielded a Ki [1] of 35 nM and a Ki [2] of over 10000 nM.

`CCCCOC(=O)NS(=O)(=O)c1sc(CC(C)C)cc1-c1cccc(CN(C)C=O)c1` showed a Ki [1] of 55 nM and a Ki [2] of over 10000 nM.

`CCCCOC(=O)NS(=O)(=O)c1sc(CC(C)C)cc1-c1cccc(Cn2ccnc2-c2cccs2)c1` gave a Ki [1] of 28 nM and a Ki [2] of over 10000 nM.

`CCCCOC(=O)NS(=O)(=O)c1sc(CC(C)C)cc1-c1cccc(Cn2cnc3ncccc32)c1` showed a Ki [1] of 44 nM and a Ki [2] of over 10000 nM.

Work on `CCCCOC(=O)NS(=O)(=O)c1sc(CC(C)C)cc1-c1cccc(CN(C)S(C)(=O)=O)c1` yielded a Ki [1] of over 10000 nM and a Ki [2] of over 10000 nM.

`CCCCOC(=O)NS(=O)(=O)c1sc(CC(C)C)cc1-c1cccc(CN2C(=O)CN(C)C2=O)c1` showed a Ki [1] of 37 nM and a Ki [2] of over 10000 nM.

For `CCCCOC(=O)NS(=O)(=O)c1sc(CC(C)C)cc1-c1cccc(Cn2ccnc2-c2ccsc2)c1`, the Ki [1] was 33 nM and the Ki [2] was over 10000 nM.

For `Cc1cc(Cn2cnc3c2C[C@@H](C(=O)O)N(C(=O)C(c2ccccc2)c2ccccc2)C3)ccc1N(C)C`, the Activity (NG108-15 [6]) was “inactive”.

`CCCCOC(=O)NS(=O)(=O)c1sc(CC(C)C)cc1-c1cccc(CCn2ccnc2)c1` gave a Ki [1] of 118 nM and a Ki [2] of over 10000 nM.

Molecule `CCCCOC(=O)NS(=O)(=O)c1sc(CC(C)C)cc1-c1cccc(CN2CCCC2=O)c1` has a Ki [1] of 224 nM and a Ki [2] of over 10000 nM.

With `CCCCOC(=O)NS(=O)(=O)c1sc(CC(C)C)cc1-c1cccc(CN(Cc2ccccc2)C(C)=O)c1` the Ki [1] was 79 nM and the Ki [2] was over 10000 nM.

For `CCCCOC(=O)NS(=O)(=O)c1sc(CC(C)C)cc1-c1cccc(CN(C)C(=O)C(=O)OCC)c1`, the Activity (NG108-15 [7]) was “Active”, the Ki [1] was 1.6 nM and the Ki [2] was over 10000 nM.

Molecule `CCCCOC(=O)NS(=O)(=O)c1sc(CC(C)C)cc1-c1cccc(Cn2ccc(C(F)(F)F)n2)c1` has a Ki [1] of 233 nM and a Ki [2] of over 10000 nM.

In the case of `CCCCOC(=O)NS(=O)(=O)c1sc(CC(C)C)cc1-c1cccc(Cn2cnc3cccnc32)c1`, the Ki [1] is reported as 66 nM and the Ki [2] is reported as over 10000 nM.

In the case of `CCCCOC(=O)NS(=O)(=O)c1sc(CC(C)C)cc1-c1cccc(Cn2ccnc2-c2ccccc2)c1`, the Ki [1] is reported as 67 nM and the Ki [2] is reported as over 10000 nM.

With `CCCCOC(=O)NS(=O)(=O)c1sc(CC(C)C)cc1-c1cccc(CN(CC)S(=O)(=O)c2cccs2)c1` the Ki [1] was 133 nM and the Ki [2] was over 10000 nM.

`CCCCOC(=O)NS(=O)(=O)c1sc(CC(C)C)cc1-c1cccc(CN2C(=O)CCC2=O)c1` showed a Ki [1] of 147 nM and a Ki [2] of over 10000 nM.

Work on `CCCCOC(=O)NS(=O)(=O)c1sc(CC(C)C)cc1-c1cccc(CN(C(=O)c2ccccc2)c2ccc(C)cc2)c1` yielded a Ki [1] of 46 nM and a Ki [2] of over 10000 nM.

With `CCCCOC(=O)NS(=O)(=O)c1sc(CC(C)C)cc1-c1cccc(CN(Cc2ccccc2)C(=O)c2cccs2)c1` the Ki [1] was 670 nM and the Ki [2] was over 10000 nM.

`CCCCOC(=O)NS(=O)(=O)c1sc(CC(C)C)cc1-c1cccc(CN(C)C(=O)c2cccs2)c1` gave a Ki [1] of 13 nM and a Ki [2] of over 10000 nM.

With `CCCCOC(=O)NS(=O)(=O)c1sc(CC(C)C)cc1-c1cccc(Cn2ccnc2Cl)c1` the Activity (NG108-15 [3]) was “inactive”, the Ki [1] was 9.2 nM and the Ki [2] was over 10000 nM. The Activity (NG108-15 [4]) was “Active” and the inhibition (NG108-15 [5]) was “Active”.

Molecule `CCCCOC(=O)NS(=O)(=O)c1sc(CC(C)C)cc1-c1cccc(Cn2cccn2)c1` has a Ki [1] of 110 nM and a Ki [2] of over 10000 nM.

With `CCCCOC(=O)NS(=O)(=O)c1sc(CC(C)C)cc1-c1cccc(Cn2ccnc2CC)c1` the Ki [1] was 8 nM and the Ki [2] was over 10000 nM.

With `CCCCOC(=O)NS(=O)(=O)c1sc(CC(C)C)cc1-c1cccc(CN(Cc2cccnc2)C(=O)c2ccccc2)c1` the Ki [1] was 47 nM, the Ki [2] was over 10000 nM and the inhibition (NG108-15 [5]) was “Active”.

In the case of `CCCCOC(=O)NS(=O)(=O)c1sc(CC(C)C)cc1-c1cccc(CN(C(C)=O)c2ccc(C)cc2)c1`, the Ki [1] is reported as 120 nM and the Ki [2] is reported as over 10000 nM.

In the case of `CCCCOC(=O)NS(=O)(=O)c1sc(CC(C)C)cc1-c1cccc(CN(C)C(=O)CCCC)c1`, the Ki [1] is reported as 56 nM and the Ki [2] is reported as over 10000 nM.

With `CCCCOC(=O)NS(=O)(=O)c1sc(CC(C)C)cc1-c1cccc(CN(C)C(=O)OCC)c1` the Ki [1] was 45 nM and the Ki [2] was over 10000 nM.

`CCCCOC(=O)NS(=O)(=O)c1sc(CC(C)C)cc1-c1cccc(Cn2cnc3ccccc32)c1` showed a Ki [1] of 32 nM and a Ki [2] of over 10000 nM.
